Among the data in patent US9932335B2 (priority 2013, dated 2018) are EC50 values, retold here.

In general, EC50 refers to the concentration needed to bring the measured effect to its halfway point.

SMILES strings stand for the structures. Changes are numbered by the printed parent chain. Read-outs that look alike come from different tables or passages of the source.

In experiment [1] the target is T1, M1 receptor (Rattus norvegicus, UniProt P08482).
T1 construct: expressed in transfected cells
T1 sequence (P08482 1-460): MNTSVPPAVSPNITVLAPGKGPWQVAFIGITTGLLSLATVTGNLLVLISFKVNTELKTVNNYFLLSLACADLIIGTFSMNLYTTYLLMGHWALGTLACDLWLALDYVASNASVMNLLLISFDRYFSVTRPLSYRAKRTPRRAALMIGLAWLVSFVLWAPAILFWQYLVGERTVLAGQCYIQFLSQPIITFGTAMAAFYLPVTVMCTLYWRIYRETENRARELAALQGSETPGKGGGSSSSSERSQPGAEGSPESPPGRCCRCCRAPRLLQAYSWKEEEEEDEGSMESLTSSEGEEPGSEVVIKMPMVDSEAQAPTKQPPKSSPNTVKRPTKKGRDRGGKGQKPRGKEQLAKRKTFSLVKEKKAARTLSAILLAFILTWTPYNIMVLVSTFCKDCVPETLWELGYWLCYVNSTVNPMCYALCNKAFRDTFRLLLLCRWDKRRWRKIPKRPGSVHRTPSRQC
Put plainly: M1 PAM assay (FLIPR intracellular calcium), rat. The class given is cell-based. (In general: Calcium assays in cells follow changes in intracellular calcium, usually with a dye or a luminescent sensor.)

In experiment [2] the target is T2, human M1 (Homo sapiens, UniProt P11229).
T2 construct: expressed in transfected cells; host or cells: CHO cells
T2 sequence (P11229 1-460): T1 sequence (P08482 1-460) with V5A, S254T, S309P, K320R, G337A, V413I
Put plainly: M1 PAM assay (FLIPR intracellular calcium, CHO human M1). In kind it is cell-based. How it is done:
The assay study the effect of several concentrations of test compounds on basal or acetylcholine-stimulated Ca^2+ levels using FLIPR. CHO human M1 are plated the day before the experiments at 2×10^5 cells/ml in PDL BioCoat 96 well black/clear plate (Becton 35 4640). The cells are grown at 37° C. and 5% CO2 in the following medium: F12 Nut Mix (Gibco 21765), 10% FCS heat inactivated (GIBCO 16000-044), 1% Pen Strep (Gibco, 15140) and 200 μg/ml Geneticin (Gibco 11811). On the day of the experiment, the medium was removed and replaced by 100 μl of dye loading buffer containing Hanks Balanced Salt solution (HBSS, 14065-049, Gibco) with 20 mM HEPES (Gibco 15630-056), 2 mM Probenicid (Sigma P8761), […] (Molecular Probes F-14202), 10% Pluronic acid Molecular Probes P-3000) pH=7.4 and incubated at 37° C. After 60 minutes extracellular dye was removed and the cells were washed five times with FLIPR buffer containing HBSS (Gibco 14065-049) with 20 mM HEPES (Gibco, 15630-056), 2 mM Probenicid (Sigma P8761) pre-warmed at 37° C. using and Ebml cell washer leaving 100 μl of FLIPR buffer in each well. The cell plate and the diluted compounds (1% DMSO final concentration) are placed on the platform of the FLIPR and the door closed. A signal test to check background fluorescence and basal fluorescence signal is performed. Laser intensity is adjusted if necessary. Two minutes preincubation with the diluted test compounds is provide to determine any agonist activity on the M1 receptor by comparison to 30 nM Acetylcholine control. In order to determine any modulator activity the diluted compounds were added to cells and after two minutes preincubation, the EC20 of acetylcholine is added followed by another two minutes preincubation before the measurement of intracellular Ca^2+ with a FLIPR (Molecular Devices).

Where [3] appears, read: rat, modulator activity with EC20 of acetylcholine, FLIPR Ca2+, read-out: EC50 rat PAM.
[4] abbreviates: human M1 in CHO cells, modulator activity with EC20 of acetylcholine, FLIPR Ca2+, read-out: EC50 h PAM.

As for `Cn1cc(-c2ccc(Cn3cc(C(=O)NCC4(O)CCCC4)c4ncccc43)c(F)c2)cn1` [Example 24, 1-[2-Fluoro-4-(1-methyl-1H-pyrazol-4-yl)-benzyl]-1H-pyrrolo[3,2-b]pyridine-3-carboxylic acid (1-hydroxy-cyclopentylmethyl)-amide], the 50% effective concentration (EC50) in experiment [1] (setting [3]) was determined as 0.261 µM; in experiment [2] (setting [4]), 0.193 µM.
The corresponding values for `CC[C@H](C)[C@@H](CO)NC(=O)c1cn(Cc2ccc(-c3cnn(C)c3)cc2F)c2cccnc12` [Example 26, 1-[2-Fluoro-4-(1-methyl-1H-pyrazol-4-yl)-benzyl]-1H-pyrrolo[3,2-b]pyridine-3-carboxylic acid ((1S,2S)-1-hydroxymethyl-2-methyl-butyl)-amide] are 0.302 µM and 0.143 µM.
In the same order, the values of `Cn1cc(-c2ccc(Cn3cc(C(=O)N[C@H](CO)C(C)(C)C)c4ncccc43)c(F)c2)cn1` [Example 27, 1-[2-Fluoro-4-(1-methyl-1H-pyrazol-4-yl)-benzyl]-1H-pyrrolo[3,2-b]pyridine-3-carboxylic acid ((S)-1-hydroxymethyl-2,2-dimethyl-propyl)-amide] are 0.355 µM and 0.126 µM.
In the case of `Cn1cc(-c2ccc(Cn3cc(C(=O)NC4CCCCC4)c4ncccc43)c(F)c2)cn1` [Example 28, N-cyclohexyl-1-(2-fluoro-4-(1-methyl-1H-pyrazol-4-yl)benzyl)-1H-pyrrolo[3,2-b]pyridine-3-carboxamide], the concentration giving a half-maximal response (EC50) in experiment [1] is 0.521 µM; in experiment [2], 0.283 µM.
The corresponding values for `Cn1cc(-c2ccc(Cn3cc(C(=O)Nc4ncccc4CO)c4ncccc43)c(F)c2)cn1` [Example 30, 1-[2-Fluoro-4-(1-methyl-1H-pyrazol-4-yl)-benzyl]-1H-pyrrolo[3,2-b]pyridine-3-carboxylic acid (3-hydroxymethyl-pyridin-2-yl)-amide] are 0.21 µM and 0.0824 µM.
The corresponding values for `Cn1cc(-c2ccc(Cn3cc(C(=O)N[C@H](CO)c4ccccc4)c4ncccc43)c(F)c2)cn1` [Example 32, 1-[2-Fluoro-4-(1-methyl-1H-pyrazol-4-yl)-benzyl]-1H-pyrrolo[3,2-b]pyridine-3-carboxylic acid ((S)-2-hydroxy-1-phenyl-ethyl)-amide] are 0.277 µM and 0.0887 µM.
For the compound `Cn1cc(-c2ccc(Cn3cc(C(=O)NC[C@@H](O)c4ccccc4)c4ncccc43)c(F)c2)cn1` [Example 34, 1-[2-Fluoro-4-(1-methyl-1H-pyrazol-4-yl)-benzyl]-1H-pyrrolo[3,2-b]pyridine-3-carboxylic acid ((S)-2-hydroxy-2-phenyl-ethyl)-amide], the EC50 in experiment [1] (setting [3]) was 0.494 µM; in experiment [2] (setting [4]), 0.12 µM.
In the same order, the values of `Cn1cc(-c2ccc(Cn3cc(C(=O)Nc4ncccc4O)c4ncccc43)c(F)c2)cn1` [Example 36, 1-[2-Fluoro-4-(1-methyl-1H-pyrazol-4-yl)-benzyl]-1H-pyrrolo[3,2-b]pyridine-3-carboxylic acid (3-hydroxy-pyridin-2-yl)-amide] are 0.314 µM and 0.109 µM.
In the same order, the values of `Cn1cc(-c2ccc(Cn3cc(C(=O)N[C@H]4COCC[C@@H]4O)c4ncccc43)c(F)c2)cn1` [Example 41, 1-[[2-fluoro-4-(1-methylpyrazol-4-yl)phenyl]methyl]-N-[(3S,4S)-4-hydroxyoxan-3-yl]pyrrolo[3,2-b]pyridine-3-carboxamide] are 0.051 µM and 0.0304 µM.
As for `Cc1ccc(Cn2cc(C(=O)N[C@H]3CCCC[C@@H]3O)c3ncccc32)cc1` [Example 43, N-((1S,2S)-2-hydroxycyclohexyl)-1-(4-methylbenzyl)-1H-pyrrolo[3,2-b]pyridine-3-carboxamide], the figures for the EC50 in experiment [1] and in experiment [2] were 0.611 µM and 0.207 µM, respectively.
The corresponding values for `COc1ccc(Cn2cc(C(=O)N[C@H]3CCCC[C@@H]3O)c3ncccc32)cc1F` [Example 44, 1-(3-fluoro-4-methoxybenzyl)-N-((1S,2S)-2-hydroxycyclohexyl)-1H-pyrrolo[3,2-b]pyridine-3-carboxamide] are 0.598 µM and 0.127 µM.
The corresponding values for `Cc1ccc(Cn2cc(C(=O)N[C@H]3CCCC[C@@H]3O)c3ncccc32)cc1F` [Example 46, 1-(3-fluoro-4-methylbenzyl)-N-((1S,2S)-2-hydroxycyclohexyl)-1H-pyrrolo[3,2-b]pyridine-3-carboxamide] are 0.444 µM and 0.257 µM.
In the same order, the values of `COc1ccc(Cn2cc(C(=O)N[C@H]3CCCC[C@@H]3O)c3ncccc32)cc1` [Example 47, N-((1S,2S)-2-hydroxycyclohexyl)-1-(4-methoxybenzyl)-1H-pyrrolo[3,2-b]pyridine-3-carboxamide] are 0.217 µM and 0.163 µM.
Consider `O=C(N[C@H]1CCCC[C@@H]1O)c1cn(Cc2ccc(C(F)(F)F)nc2)c2cccnc12` [Example 48, N-((1S,2S)-2-hydroxycyclohexyl)-1-((6-(trifluoromethyl)pyridin-3-yl)methyl)-1H-pyrrolo[3,2-b]pyridine-3-carboxamide], for which the EC50 in experiment [1] was found to be 0.422 µM; in experiment [2] it was 1.77 µM.
The corresponding values for `O=C(N[C@H]1CCCC[C@@H]1O)c1cn(Cc2ccc(-c3ccccc3)cc2)c2cccnc12` [Example 49, 1-(biphenyl-4-ylmethyl)-N-((1S,2S)-2-hydroxycyclohexyl)-1H-pyrrolo[3,2-b]pyridine-3-carboxamide] are 0.512 µM and 0.3 µM.
In the same order, the values of `Cn1ncc2cc(Cn3cc(C(=O)N[C@H]4CCCC[C@@H]4O)c4ncccc43)ccc21` [Example 52, N-((1S,2S)-2-hydroxycyclohexyl)-1-((1-methyl-1H-indazol-5-yl)methyl)-1H-pyrrolo[3,2-b]pyridine-3-carboxamide] are 0.163 µM and 0.0715 µM.
With `Cn1cc(-c2ccc(Cn3cc(C(=O)N[C@H]4CCCC[C@@H]4O)c4ncccc43)cc2)cn1` [Example 55, N-((1S,2S)-2-hydroxycyclohexyl)-1-(4-(1-methyl-1H-pyrazol-4-yl)benzyl)-1H-pyrrolo[3,2-b]pyridine-3-carboxamide], the half-maximal effective concentration (EC50) in experiment [1] worked out at 0.0139 µM; in experiment [2], 0.0111 µM.
In the same order, the values of `Cn1cc(-c2ccc(Cn3cc(C(=O)N[C@H]4CCCC[C@@H]4O)c4ncccc43)cn2)cn1` [Example 56, N-((1S,2S)-2-hydroxycyclohexyl)-1-((6-(1-methyl-1H-pyrazol-4-yl)pyridin-3-yl)methyl)-1H-pyrrolo[3,2-b]pyridine-3-carboxamide] are 0.071 µM and 0.0349 µM.
In the same order, the values of `O=C(N[C@H]1CCCC[C@@H]1O)c1cn(Cc2ccc(-c3nccs3)cc2)c2cccnc12` [Example 60, N-((1S,2S)-2-hydroxycyclohexyl)-1-(4-(thiazol-2-yl)benzyl)-1H-pyrrolo[3,2-b]pyridine-3-carboxamide] are 0.126 µM and 0.0382 µM.
Consider `CNC(=O)c1ccc(Cn2cc(C(=O)N[C@H]3CCCC[C@@H]3O)c3ncccc32)cc1` [Example 61, N-((1S,2S)-2-hydroxycyclohexyl)-1-(4-(methylcarbamoyl)benzyl)-1H-pyrrolo[3,2-b]pyridine-3-carboxamide], for which the EC50 turned out to be 0.018 µM in experiment [1] and 0.0091 µM in experiment [2].
Take `O=C(NC1CCOCC1)c1cn(Cc2ccc3[nH]ncc3c2)c2cccnc12` [Example 62]: the EC50 is 0.325 µM in experiment [1] and 0.428 µM in experiment [2].
